{
  "source": "patent US4322351A",
  "about": "(priority 1980, dated 1982)",
  "key": {"[1]": {"test_system": "Chinese hamster ovary cells", "assay": "standard mitotic inhibition test employing Chinese hamster ovary cells", "type": "cell-based", "source_text": "The compounds of this invention are antimitotic compounds which adversely affects the growth of malignant cells. This activity is manifested in a standard mitotic inhibition test employing Chinese hamster ovary cells."}, "P388/V leukemia": {"test_system": "P388/V leukemia", "assay": "transplanted tumors in mice: P388/V leukemia", "type": "in vivo", "details": "dose and regimen not given, intraperitoneal", "protocol": "(§1) The bases of this invention and their salts preparable by the processes disclosed herein are active in vivo against transplanted tumors in mice.\n(§2) The following table--Table 1--gives the results of experiments in which mice bearing the susceptible transplanted tumor were treated with a compound of this invention. In the table, column 1 gives the name of the compound; column 2, the tumor used; column 3 the dosage; and column 4, the percent inhibition of tumor growth (I) or prolongation of life (PL). The following dosage regimens were employed: every day for 7 or 10 days after tumor inoculation; or every fourth day (three doses) starting at the third day after tumor inoculation."}, "B16 melanoma": {"test_system": "B16 melanoma", "assay": "transplanted tumors in mice: B16 melanoma", "type": "in vivo", "details": "intraperitoneal; for percent Prolongation of life (PL): * = 1 or more indefinite survivors", "protocol": "as §1, §2"}, "755 adenocarcinoma": {"test_system": "755 adenocarcinoma", "assay": "transplanted tumors in mice: 755 adenocarcinoma", "type": "in vivo", "details": "intraperitoneal", "protocol": "as §1, §2"}, "P1534(J)": {"test_system": "P1534(J)", "assay": "transplanted tumors in mice: P1534(J) leukemia", "type": "in vivo", "details": "intraperitoneal", "protocol": "as §1\nas §2, with “The following dosage regimens were employed: every day for 7 or 10 days after tumor inoculation; or every fourth day (three doses) starting at the third day after tumor inoculation.” left out"}, "tumor": {"test_system": "tumor", "details": "background, U.S. Pat. No. 4,166,810 and Conrad et al.; cited from earlier work"}},
  "note": "Counter-ions that a name gives are not always drawn.",
  "data": [
    {"compound": "4'-Acetylamino VLB", "values": [
      {"measurement": "mitotic index", "setting": "[1]; 2.0×10^-2 mcg/ml", "value": "+ (15-25% inhibition)"}
    ]},
    {"compound": "CCC1(NC(C)=O)C[C@@H]2CN(CCc3c([nH]c4ccccc34)[C@@](C(=O)OC)(c3cc4c(cc3OC)N(C)[C@H]3[C@@](O)(C(=O)OC)[C@H](OC(C)=O)[C@]5(CC)C=CCN6CC[C@]43[C@@H]65)C2)C1", "note": "(some centres unmarked) [4'-acetylamino VLB sulfate]", "values": [
      {"measurement": "indefinite survivors", "setting": "P388/V leukemia", "value": "* (1 or more indefinite survivors)"},
      {"measurement": "percent Prolongation of life (PL)", "setting": "P388/V leukemia; * = 1 or more indefinite survivors", "value": 20, "unit": "%"},
      {"measurement": "indefinite survivors", "setting": "B16 melanoma; 3 days, 1.5 mg/kg", "value": "* (1 or more indefinite survivors)"},
      {"measurement": "percent Prolongation of life (PL)", "setting": "B16 melanoma; 3 days, 1.5 mg/kg", "value": 120, "unit": "%"},
      {"measurement": "indefinite survivors", "setting": "B16 melanoma; 3 days, 3 mg/kg", "value": "* (1 or more indefinite survivors)"},
      {"measurement": "percent Prolongation of life (PL)", "setting": "B16 melanoma; 3 days, 3 mg/kg", "value": "74-201%"},
      {"measurement": "indefinite survivors", "setting": "B16 melanoma; .75 mg/kg", "value": "* (1 or more indefinite survivors)"},
      {"measurement": "percent Prolongation of life (PL)", "setting": "B16 melanoma; .75 mg/kg", "value": 119, "unit": "%"},
      {"measurement": "Percent Inhibition (I) of tumor growth", "setting": "755 adenocarcinoma; 10 days, 1 mg/kg", "value": 18, "unit": "%"},
      {"measurement": "Percent Inhibition (I) of tumor growth", "setting": "755 adenocarcinoma; 10 days, .5 mg/kg", "value": 30, "unit": "%"},
      {"measurement": "Percent Inhibition (I) of tumor growth", "setting": "755 adenocarcinoma; 10 days, .75 mg/kg", "value": 29, "unit": "%"},
      {"measurement": "Percent Inhibition (I) of tumor growth", "setting": "755 adenocarcinoma; 11 days, 3 mg/kg", "value": 57, "unit": "%"},
      {"measurement": "Percent Inhibition (I) or Prolongation (PL) column: toxicity", "setting": "755 adenocarcinoma; 11 days, 6 mg/kg", "value": "Toxic"},
      {"measurement": "Percent Inhibition (I) of tumor growth", "setting": "755 adenocarcinoma; 11 days, .5 mg/kg", "value": 33, "unit": "%"},
      {"measurement": "Percent Inhibition (I) of tumor growth", "setting": "P1534(J); every third day, 5.0 mg/kg", "value": 42, "unit": "%"},
      {"measurement": "Percent Inhibition (I) of tumor growth", "setting": "P1534(J); every third day, 7.5 mg/kg", "value": 71, "unit": "%"}
    ]},
    {"compound": "CCC1(NC(C)=O)C[C@@H]2CN(CCc3c([nH]c4ccccc34)[C@@](C(=O)OC)(c3cc4c(cc3OC)N(C)[C@H]3[C@@](O)(C(=O)OC)[C@H](O)[C@]5(CC)C=CCN6CC[C@]43[C@@H]65)C2)C1", "note": "(some centres unmarked) [4'-acetylamino-4-desacetyl VLB]", "values": [
      {"measurement": "Percent Inhibition (I) of tumor growth", "setting": "B16 melanoma; 10 1.0 (regimen and dose mg/kg)", "value": 58, "unit": "%"},
      {"measurement": "Percent Inhibition (I) of tumor growth", "setting": "B16 melanoma; .5 mg/kg", "value": 23, "unit": "%"},
      {"measurement": "Percent Inhibition (I) of tumor growth", "setting": "B16 melanoma; .75 mg/kg", "value": 44, "unit": "%"},
      {"measurement": "inhibition at 2 µg/mL", "setting": "[1]; Cricetulus griseus, CHO, read-out: mitotic index", "value": "25 to 50", "unit": "%"},
      {"measurement": "Percent Inhibition (I) of tumor growth", "setting": "P1534(J); 9.5-1.0 mg/kg", "value": "2-11%"}
    ]},
    {"compound": "CC[C@]1(O)C[C@@H]2CN(CCc3c([nH]c4ccccc34)[C@@](C(=O)OC)(c3cc4c(cc3OC)N(C)[C@H]3[C@@](O)(C(N)=O)[C@H](O)[C@]5(CC)C=CCN6CC[C@]43[C@@H]65)C2)C1", "note": "[vindesine, 4-desacetyl VLB C-3 carboxamide]", "values": [
      {"measurement": "anti-tumor activity", "setting": "tumor", "value": "very active"}
    ]}
  ]
}
